Laboratory results reported in patent publication US7728034B2, “Treating neurological disorders using selective antagonists of persistent sodium current” (Allergan, Inc., priority 2003, dated 2010).

Tests used:
[1] = Estimated plasma concentration after i.p. dosing in the AGS study; format: in vivo; conditions: DBA, mouse, intraperitoneal, 1 mg/kg i.p., 60 minutes after dosing
[2] = system: sound-induced seizures in DBA mice; experiment: Audiogenic seizure (AGS) model in DBA/2 mice; format: in vivo, mouse
Text: This study examined the anti-seizure efficacy of Compound 1 against to reference compounds (Diazepam and Sipatrigine) using the audiogenic mouse model as the test platform.
DBA mice are well established in the literature as a model for audiogenic seizures (AGS). This genetically based model is attractive for testing potential therapeutics in that no treatment protocol is required to create the condition. It is classified as inherited idiopathic epilepsy with no known associated organic disease.
The AGS response in these mice consists of a progressive sequence of behaviors. The latency to onset may vary from 2 to 15 seconds, and is age variant. The initial wild running phase may be divided into an early running phase that varies from 5 tp 20 seconds, followed by a wild running phase that continues for 10-20 seconds. Wild running may progress to tonic/clonic seizures, with loss of righting ability, respiratory suppression and death.
We a scoring system to quantify the effects of the test compounds on the induction of seizures. The behavioral sequence was assigned ascending numerical values (Table 1), and the highest numerical value reached by an animal was that animal's score.
Animals. Male DBA/2 mice were obtained from Jackson Laboratories at 21 day post partum. The animals were acclimated for 1 or 2 days prior to use. Individual animal weights were recorded immediately before treatment. Surviving animals were euthanized within three days of completion of testing.
Seizure Induction. Mice were placed in a test chamber (25 cm i.d.) and exposed to pure tone sound of 11 kHz at a minimum of 116 dB for approximately 60 s until a sequential seizure response, consisting of an early wild running phase, followed by generalized myoclonus and tonic flexion and extension, was obtained. Non-responders were challenged up to five times. Ten animals were obtained by this method for each intended treatment group, with a standard deviation in their maximum score of less than 25%. The acoustic stimulus signal was produced using a signal generator and projected via four high-frequency ceramic speakers mounted on the roof of the chamber. Chamber calibration was performed daily to ensure consistent sound pressure. AGS behaviors were videotaped for later analysis.
I.P. injections: The 10 animals in each treatment group were injected intra-peritoneally with the test drug in a volume of 10 mL/kg of body weight. Injections were 60 min prior to sound challenge.
Data analyses: Data were tested for normal distribution, and (when normal) were analyzed using ANOVA followed by Student's t test. When the data were not normally distributed, analysis was with the Mann-Whitney rank sum test. Significance was set at p<0.05.

[3] = molecular target: T1, HEK cells expressing Nav1.3 (HEK-Nav1.3) (Homo sapiens, UniProt Q9NY46); experiment: High-throughput VIPR FRET assay of persistent sodium current-dependent depolarization with K+ counter-screen; format: cell-based; conditions: tetracaine 10 μM, FIG. 2
T1 construct: expressed in transfected cells

[4] = DBA mice, 60 minutes after dosing, Compound 1 1 mg/kg, references at predicted doses
[5] = DBA/2 mice, i.p. 60 min before sound challenge, scale 1-8, Diazepam 0.15, Sipatrigine 3, Compound 1 1 mg/kg, control 4.8 ± 1.9

T1 sequence (Q9NY46 whole entry): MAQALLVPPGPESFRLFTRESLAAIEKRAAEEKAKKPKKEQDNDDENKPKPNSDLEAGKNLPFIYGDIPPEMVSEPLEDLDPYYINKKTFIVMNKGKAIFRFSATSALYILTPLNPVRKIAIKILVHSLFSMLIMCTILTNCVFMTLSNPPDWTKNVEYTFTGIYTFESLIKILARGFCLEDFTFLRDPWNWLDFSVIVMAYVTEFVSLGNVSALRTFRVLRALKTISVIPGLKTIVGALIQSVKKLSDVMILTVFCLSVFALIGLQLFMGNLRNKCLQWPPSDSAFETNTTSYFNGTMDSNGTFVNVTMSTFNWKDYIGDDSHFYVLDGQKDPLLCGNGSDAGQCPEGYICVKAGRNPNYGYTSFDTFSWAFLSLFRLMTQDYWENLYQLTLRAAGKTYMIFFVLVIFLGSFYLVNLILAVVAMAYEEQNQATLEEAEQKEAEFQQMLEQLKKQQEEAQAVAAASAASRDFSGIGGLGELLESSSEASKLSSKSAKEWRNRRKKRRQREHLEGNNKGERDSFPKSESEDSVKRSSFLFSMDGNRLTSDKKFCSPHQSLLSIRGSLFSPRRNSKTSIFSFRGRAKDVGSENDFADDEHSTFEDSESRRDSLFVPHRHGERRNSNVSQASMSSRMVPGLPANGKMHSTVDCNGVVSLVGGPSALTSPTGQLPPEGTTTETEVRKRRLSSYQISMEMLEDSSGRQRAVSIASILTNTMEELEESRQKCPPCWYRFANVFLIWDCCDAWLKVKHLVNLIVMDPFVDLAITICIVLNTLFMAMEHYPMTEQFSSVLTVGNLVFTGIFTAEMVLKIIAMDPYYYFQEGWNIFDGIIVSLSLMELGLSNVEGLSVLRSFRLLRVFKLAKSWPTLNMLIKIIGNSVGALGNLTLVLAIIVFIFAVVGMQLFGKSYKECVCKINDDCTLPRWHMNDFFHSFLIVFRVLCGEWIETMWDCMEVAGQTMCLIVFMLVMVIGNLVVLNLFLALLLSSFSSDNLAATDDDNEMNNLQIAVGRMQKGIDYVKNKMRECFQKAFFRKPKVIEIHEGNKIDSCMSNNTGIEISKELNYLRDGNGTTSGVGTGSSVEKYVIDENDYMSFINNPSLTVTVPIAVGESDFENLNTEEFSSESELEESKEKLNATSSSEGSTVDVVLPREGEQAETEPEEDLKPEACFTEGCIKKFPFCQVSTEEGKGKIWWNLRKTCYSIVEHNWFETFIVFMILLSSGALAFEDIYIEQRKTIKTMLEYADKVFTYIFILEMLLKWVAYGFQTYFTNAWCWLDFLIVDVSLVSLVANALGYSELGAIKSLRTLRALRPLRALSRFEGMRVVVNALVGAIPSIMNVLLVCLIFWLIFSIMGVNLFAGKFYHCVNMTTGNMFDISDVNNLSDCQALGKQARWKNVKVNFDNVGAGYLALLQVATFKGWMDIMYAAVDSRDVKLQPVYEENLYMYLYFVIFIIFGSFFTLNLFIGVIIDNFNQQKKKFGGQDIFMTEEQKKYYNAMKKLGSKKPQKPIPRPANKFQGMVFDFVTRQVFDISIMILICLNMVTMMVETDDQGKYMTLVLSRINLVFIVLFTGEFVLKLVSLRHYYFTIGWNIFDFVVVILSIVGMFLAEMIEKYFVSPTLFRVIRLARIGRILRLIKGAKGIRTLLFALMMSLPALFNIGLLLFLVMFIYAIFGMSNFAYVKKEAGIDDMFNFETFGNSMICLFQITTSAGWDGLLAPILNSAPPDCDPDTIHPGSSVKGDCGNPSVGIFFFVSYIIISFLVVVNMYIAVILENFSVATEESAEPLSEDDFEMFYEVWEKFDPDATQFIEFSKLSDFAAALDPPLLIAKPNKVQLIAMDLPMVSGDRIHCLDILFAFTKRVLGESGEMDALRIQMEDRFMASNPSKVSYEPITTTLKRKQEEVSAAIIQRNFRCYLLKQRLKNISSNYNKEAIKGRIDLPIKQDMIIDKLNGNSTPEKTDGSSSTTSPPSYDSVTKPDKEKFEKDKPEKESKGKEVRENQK

Compound: O=C(NCCCCc1ccccc1)c1cccs1 [Compound 1, thiophene-2-carboxylic acid (4-phenyl-butyl)-amide]
- concentration at 60 min [1]: ~5 µM
- behavioral/seizure response to sound-induced seizures [2, 4]: significantly reduced
- Seizure score (AGS), Mean ± s.d. [2, 5]: 3.2 ± 2.3

Compound: CN1C(=O)CN=C(c2ccccc2)c2cc(Cl)ccc21 [Diazepam]
- Seizure score (AGS), Mean ± s.d. ([2]; mouse, in vivo): 3.1 ± 1.1
- behavioral/seizure response to sound-induced seizures ([2]; mouse, in vivo, 1 mg/kg): effective

Compound: CN1CCN(c2ncc(-c3cc(Cl)cc(Cl)c3Cl)c(N)n2)CC1 [Sipatrigine]
- behavioral/seizure response to sound-induced seizures [2, 4]: effective
- Seizure score (AGS), Mean ± s.d. [2, 5]: 3.3 ± 1.7

Compound: CCCCNc1ccc(C(=O)OCCN(C)C)cc1 [Tetracaine]
- K+-dependent change in Rf/Ri (depolarization, counter-screen) [3]: not
- Na+-dependent change in Rf/Ri (depolarization) [3]: inhibited
